Patent US6908745B2, “Gamma sterilizable culture medium for the identification of yeasts and fungi” (Biotest AG, priority 2001, dated 2005)

Test system: bacteria
Test: Antibacterial effect of antibiotics after γ-radiation
Conditions: γ-radiation with 25 kGray
Description: In the pharmaceuticals industry are sought γ-sterilized media for use in clean room areas and isolators. These clean room areas must be monitored for microbial contamination, and the product (that is, the microbiological nutrient medium) itself, with which this monitoring is carried out, should not introduce any contamination, but be sterile. The microbiological media are not completely sterile after autoclaving and filling into, for example, Petri dishes or other agar carriers, but have contamination rates in the order of magnitude of 0.1 to approx. 1%. Only as a result of an additional γ-sterilization (or β-sterilization) with high-energy radiation are killed the residual existing contaminations and a sterile product is obtained. However, many antibiotics are destroyed as a result of the γ-sterilization, so that afterward in selective media for yeasts and fungi whose selectivity is based on the addition of antibiotics, this selectivity no longer exists.

Compound	antibacterial effect after γ-radiation
O=C(N[C@H](CO)[C@H](O)c1ccc([N+](=O)[O-])cc1)C(Cl)Cl [chloramphenicol]	completely destroyed
penicillin	essentially reduced
